Measured values reported in patent US7135466B2 (Kirin Beer Kabushiki Kaisha, priority 1999, dated 2006).
pIC50: −log10 of the molar value.

What was measured:
[1] = target: T1, c-kit (Homo sapiens, UniProt P10721); experiment: Inhibitory activity against c-kit autophosphorylation (MO7e cells, h-SCF); format: cell-based; details: for inhibition at 1 µM: Mo7e, figure within parentheses in −( ) or >1000( ), at 1000 nM; for pIC50: MO7e cells, 50 ng/ml h-SCF, read-out: c-kit IC50
T1 construct: MO7e (human megakaryocytic leukemia cell line) which had been arrested for 20 hr; endogenous in cells; host or cells: MO7e human megakaryocytic leukemia cell line
T1 sequence (P10721 26-976): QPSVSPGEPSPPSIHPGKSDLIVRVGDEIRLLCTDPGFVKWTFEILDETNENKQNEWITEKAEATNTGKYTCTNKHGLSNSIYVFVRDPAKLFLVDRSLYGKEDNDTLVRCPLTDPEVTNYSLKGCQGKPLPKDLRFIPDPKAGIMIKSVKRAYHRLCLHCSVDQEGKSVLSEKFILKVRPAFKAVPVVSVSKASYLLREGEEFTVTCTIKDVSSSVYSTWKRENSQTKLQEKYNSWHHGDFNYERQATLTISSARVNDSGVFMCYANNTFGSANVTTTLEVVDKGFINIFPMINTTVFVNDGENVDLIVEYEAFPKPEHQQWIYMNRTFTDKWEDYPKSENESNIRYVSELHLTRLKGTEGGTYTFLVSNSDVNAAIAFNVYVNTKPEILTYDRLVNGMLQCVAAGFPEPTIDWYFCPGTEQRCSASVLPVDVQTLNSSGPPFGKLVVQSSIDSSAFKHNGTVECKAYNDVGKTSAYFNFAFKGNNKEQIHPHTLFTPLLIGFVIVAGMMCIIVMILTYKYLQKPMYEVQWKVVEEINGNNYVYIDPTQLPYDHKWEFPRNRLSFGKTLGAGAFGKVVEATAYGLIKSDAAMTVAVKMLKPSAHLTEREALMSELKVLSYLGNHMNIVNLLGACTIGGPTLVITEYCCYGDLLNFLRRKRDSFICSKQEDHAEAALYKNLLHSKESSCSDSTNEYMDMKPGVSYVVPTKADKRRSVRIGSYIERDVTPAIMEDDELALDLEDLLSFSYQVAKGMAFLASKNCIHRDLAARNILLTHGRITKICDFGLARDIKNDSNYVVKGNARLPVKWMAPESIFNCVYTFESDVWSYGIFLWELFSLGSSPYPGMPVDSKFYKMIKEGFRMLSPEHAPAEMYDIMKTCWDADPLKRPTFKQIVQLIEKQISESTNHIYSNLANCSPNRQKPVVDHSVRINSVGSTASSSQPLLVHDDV
Procedure, shortened: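 MO7e cells, arrested for 20 hr, were pretreated with test compound in DMSO for 1 hr and then stimulated with 50 ng/ml h-SCF for 5 min before lysis. Lysates were captured on immobilized anti-phosphotyrosine PY-20, probed with anti-c-kit antibody and HRP anti-rabbit IgG, and read colorimetrically at 450 nm.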

[2] = target: T2, PDGF-Ra (Homo sapiens, UniProt P16234); experiment: Inhibitory activity against PDGF-Ra phosphorylation by PDGF-AA stimulation using G292; format: cell-based; details: for pIC50: > means inhibition at indicated concentration not more than 50%, < and << not less than 50%, read-out: PDGF (E) IC50; for inhibition at 0.1 µM: G292, figure within parentheses in >100( ), at 100 nM, read-out: PDGF (E) inhibition (%) at 100 nM
T2 construct: host or cells: G-292 human osteosarcoma cells
T2 sequence (P16234 24-1089): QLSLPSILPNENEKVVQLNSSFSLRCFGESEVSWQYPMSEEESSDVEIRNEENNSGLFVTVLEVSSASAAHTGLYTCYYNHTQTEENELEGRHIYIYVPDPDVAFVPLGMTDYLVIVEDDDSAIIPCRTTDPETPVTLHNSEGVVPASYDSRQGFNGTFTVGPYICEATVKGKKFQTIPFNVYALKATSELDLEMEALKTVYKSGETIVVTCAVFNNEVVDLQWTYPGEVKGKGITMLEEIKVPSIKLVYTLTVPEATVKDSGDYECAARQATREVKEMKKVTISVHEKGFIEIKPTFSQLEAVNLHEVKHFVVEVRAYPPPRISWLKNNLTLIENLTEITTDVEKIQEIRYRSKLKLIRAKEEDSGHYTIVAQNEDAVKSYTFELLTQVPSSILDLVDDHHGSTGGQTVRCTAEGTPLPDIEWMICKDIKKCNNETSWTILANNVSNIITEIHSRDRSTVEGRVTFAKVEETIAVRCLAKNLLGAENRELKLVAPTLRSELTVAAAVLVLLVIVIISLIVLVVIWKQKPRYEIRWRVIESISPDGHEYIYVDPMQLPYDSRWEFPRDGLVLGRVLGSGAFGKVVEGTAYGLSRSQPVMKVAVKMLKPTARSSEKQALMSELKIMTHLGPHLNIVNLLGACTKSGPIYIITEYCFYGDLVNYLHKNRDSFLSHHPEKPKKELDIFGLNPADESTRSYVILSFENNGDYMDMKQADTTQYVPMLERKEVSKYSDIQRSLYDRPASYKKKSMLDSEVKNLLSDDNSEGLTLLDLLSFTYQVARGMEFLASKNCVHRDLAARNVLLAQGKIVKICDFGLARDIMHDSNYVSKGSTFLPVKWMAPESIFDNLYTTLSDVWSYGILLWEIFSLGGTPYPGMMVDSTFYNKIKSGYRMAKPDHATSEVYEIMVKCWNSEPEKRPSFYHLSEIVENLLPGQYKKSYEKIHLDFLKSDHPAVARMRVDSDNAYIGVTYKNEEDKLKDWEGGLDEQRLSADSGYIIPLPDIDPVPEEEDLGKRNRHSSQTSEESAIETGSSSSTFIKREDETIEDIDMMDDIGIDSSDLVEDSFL
Procedure, shortened: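 In G-292 osteosarcoma cells kept overnight in 0.1% FBS, compound exposure (1 hr, 37 °C) preceded PDGF-AA stimulation at 50 ng/ml for 5 min; receptor phosphotyrosine was then detected by PY-20 capture ELISA.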

SMILES	inhibition at 1 µM [1] [%]	pIC50 [2]	inhibition at 0.1 µM [2] [%]	pIC50 [1]
COc1cc2ncnc(Oc3ccc(NC(=O)N4CCN(Cc5ccccc5)CC4)cc3)c2cc1OC [Example 690, N1-{4-[(6,7-Dimethoxy-4-quinazolinyl)oxy]phenyl}-4-benzyl-1-piperazinecarboxamide]	11	< 7.00	10	–
COc1cc2ncnc(Oc3ccc(NC(=O)N4CCN(c5ccccc5)CC4)cc3)c2cc1OC [Example 691, N1-{4-[(6,7-Dimethoxy-4-quinazolinyl)oxy]phenyl}-4-phenyl-1-piperazinecarboxamide]	18	< 7.00	10	–
COc1cc2nccc(Oc3ccc(NC(=S)NC(=O)c4ccc(Br)s4)c(C)c3)c2cc1OC [Example 692, N-[(5-Bromo-2-thienyl)carbonyl]-N′-{4-[(6,7-dimethoxy-4-quinolyl)oxy]-2-methylphenyl}thiourea]	20	< 7.00	35	< 6.00
COc1cc2nccc(Oc3ccc(NC(=S)NC(=O)c4ccc(Br)s4)cc3Cl)c2cc1OC [Example 693, N-[(5-Bromo-2-thienyl)carbonyl]-N′-{3-chloro-4-[(6,7-dimethoxy-4-quinolyl)oxy]phenyl}thiourea]	46	7.25	–	< 6.00
COc1cc2nccc(Oc3ccc(NC(=S)NC(=O)c4ccc(Cl)s4)c(C)c3)c2cc1OC [Example 694, N-[(5-Chloro-2-thienyl)carbonyl]-N′-{4[(6,7-dimethoxy-4-quinolyl)oxy]-2-methylphenyl}thiourea]	37	< 7.00	12	–
COc1cc2nccc(Oc3ccc(NC(=S)NC(=O)c4ccc(Cl)s4)cc3Cl)c2cc1OC [Example 695, N-{3-Chloro-4-[(6,7-dimethoxy-4-quinolyl)oxy]phenyl}-N′-[(5-chloro-2-thienyl)carbonyl]thiourea]	37	< 7.00	10	–
COc1cc2nccc(Oc3ccc(NC(=S)NC(=O)CCSC)c(C)c3)c2cc1OC [Example 696, N-{4-[(6,7-Dimethoxy-4-quinolyl)oxy]-2-methylphenyl}-N′-[3-(methylthio)propanoyl]-thiourea]	35	< 7.00	37	–
COc1cc2nccc(Oc3ccc(NC(=S)NC(=O)CCSC)cc3Cl)c2cc1OC [Example 697, N-{3-Chloro-4-[(6,7-dimethoxy-4-quinolyl)oxy]phenyl}-N′-[3-(methylthio)propanoyl]thiourea]	–	> 8.00	–	6.68
COc1cc2nccc(Oc3ccc(NC(=S)NC(=O)c4cc(C)oc4C)c(C)c3)c2cc1OC [Example 698, N-{4-[(6,7-Dimethoxy-4-quinolyl)oxy]-2-methylphenyl}-N′-[(2,5-dimethyl-3-furyl)carbonyl]thiourea]	29	< 7.00	34	–
COc1cc2nccc(Oc3ccc(NC(=S)NC(=O)c4cc(C)oc4C)cc3Cl)c2cc1OC [Example 699, N-{3-Chloro-4-[(6,7-dimethoxy-4-quinolyl)oxy]phenyl}-N′-[(2,5-dimethyl-3-furyl)carbonyl]thiourea]	29	7.89	–	–
COc1cc2nccc(Oc3ccc(NC(=S)NC(=O)Cc4cccs4)c(C)c3)c2cc1OC [Example 700, N-{4-[(6,7-Dimethoxy-4-quinolyl)oxy]-2-methylphenyl}-N′-[2-(2-thienyl)acetyl]thiourea]	0	< 7.00	30	–
COc1cc2nccc(Oc3ccc(NC(=S)NC(=O)Cc4cccs4)cc3Cl)c2cc1OC [Example 701, N-{3-Chloro-4-[(6,7-dimethoxy-4-quinolyl)oxy]phenyl}-N′-[2-(2-thienyl)acetyl]thiourea]	–	> 8.00	–	6.34
COc1cc2nccc(Oc3ccc(NC(=S)NC(=O)Cc4ccccc4C)cc3Cl)c2cc1OC [Example 702, N-{3-Chloro-4-[(6,7-dimethoxy-4-quinolyl)oxy]phenyl}-N′-[2-(2-methylphenyl)acetyl]thiourea]	–	> 8.00	–	6.31

The remaining lines, values ahead:

inhibition at 1 µM [1] [%]	pIC50 [2]	inhibition at 0.1 µM [2] [%]	pIC50 [1]	SMILES
–	> 8.00	–	6.43	COc1cc2ncnc(Oc3ccc(NC(=S)NC(=O)Cc4ccccc4C)cc3)c2cc1OC [Example 703, N-{4-[(6,7-Dimethoxy-4-quinazolinyl)oxy]phenyl}-N′-[2-(2-methylphenyl)acetyl]thiourea]
–	7.80	–	6.75	COc1cc2nccc(Oc3ccc(NC(=S)NC(=O)CC4CCCCC4)cc3Cl)c2cc1OC [Example 704, N-{3-Chloro-4-[(6,7-dimethoxy-4-quinolyl)oxy]phenyl}-N′-(2-cyclohexylacetyl)thiourea]
–	> 8.00	–	6.83	COc1cc2ncnc(Oc3ccc(NC(=S)NC(=O)CC4CCCCC4)cc3)c2cc1OC [Example 705, N-(2-Cyclohexylacetyl)-N′-{4-[(6,7-dimethoxy-4-quinazolinyl)oxy]phenyl}thiourea]
–	> 8.00	–	6.64	COc1cc2nccc(Oc3ccc(NC(=S)NCc4ccccc4)cc3Cl)c2cc1OC [Example 706, N-Benzyl-N′-{3-chloro-4-[(6,7-dimethoxy-4-quinolyl)oxy]phenyl}thiourea]
–	7.77	–	6.68	COc1cc2ncnc(Oc3ccc(NC(=S)NCc4ccccc4)cc3)c2cc1OC [Example 707, N-Benzyl-N′-{4-[(6,7-dimethoxy-4-quinazolinyl)oxy]phenyl}thiourea]
–	7.29	–	6.46	COc1cc2nccc(Oc3ccc(NC(=S)NC(=O)Cc4cccc5ccccc45)cc3Cl)c2cc1OC [Example 708, N-{3-Chloro-4-[(6,7-dimethoxy-4-quinolyl)oxy]phenyl}-N′-[2-(1-naphthyl)acetyl]thiourea]
19	7.72	–	–	COc1cc2ncnc(Oc3ccc(NC(=S)NC(=O)Cc4cccc5ccccc45)cc3)c2cc1OC [Example 709, N-{4-[(6,7-Dimethoxy-4-quinazolinyl)oxy]phenyl}-N′-[2-(1-naphthyl)acetyl]thiourea]
30	< 7.00	33	–	COc1cc2nccc(Oc3ccc(NC(=S)NC(=O)Cc4ccc5ccccc5c4)cc3Cl)c2cc1OC [Example 710, N-{3-Chloro-4-[(6,7-dimethoxy-4-quinolyl)oxy]phenyl}-N′-[2-(2-naphthyl)acetyl]thiourea]
17	< 7.00	34	–	COc1cc2ncnc(Oc3ccc(NC(=S)NC(=O)Cc4ccc5ccccc5c4)cc3)c2cc1OC [Example 711, N-{4-[(6,7-Dimethoxy-4-quinazolinyl)oxy]phenyl}-N′-[2-(2-naphthyl)acetyl]thiourea]
–	7.17	–	7.05	COc1ccc(CCC(=O)NC(=S)Nc2ccc(Oc3ncnc4cc(OC)c(OC)cc34)cc2)cc1OC [Example 713, N-[3-(3,4-Dimethoxyphenyl)propanoyl]-N′-{4-[(6,7-dimethoxy-4-quinazolinyl)oxy]phenyl}thiourea]
–	7.80	–	6.61	COc1cc2nccc(Oc3ccc(NC(=S)NC(=O)COc4ccccc4Cl)cc3Cl)c2cc1OC [Example 714, N-{3-Chloro-4-[(6,7-dimethoxy-4-quinolyl)oxy]phenyl}-N′-[2-(2-chlorophenoxy)acetyl]thiourea]
